Assay results taken from US6525001B1, “Substituted pyrimidine and pyridine herbicides” (Mid-American Commercialization Corporation, priority 1997, dated 2003).

Key:
Assay type in all cases: in vivo
[1] = tested on: duck salad (Heteranthera limosa); assay: Test B flood test
Method in brief: (§1)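 Plants were grown to the 2-leaf stage before treatment with test chemical, then held in a greenhouse for twelve to sixteen days. Injury was visually rated against untreated controls on a 0–10 scale, where 0 is no effect and 10 is complete control.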

rice (Oryza sativa) = assay: Test B flood test
Method in brief: as §1

[2] = tested on: bamyardgrass (Echinochloa crus-galli); assay: Test B flood test
Method in brief: as §1

[3] = tested on: smallflower flatsedge (Cyperus difformis); assay: Test B flood test
Method in brief: as §1

[4] = tested on: wheat (Triticum aestivum); assay: Test B pre-/postemergence; parameters: key: 0 is no effect; 10 is complete control
Method in brief: (§2)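 Seeds were planted and sprayed preemergence, while plants at 2 to 18 cm (1- to 4-leaf stage) were sprayed postemergence at the same time, with test chemical in a non-phytotoxic solvent mixture containing surfactant. After twelve to sixteen days in a greenhouse, injury was rated visually against untreated controls on a 0–10 scale.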

[5] = tested on: bedstraw (Galium aparine); assay: Test B pre-/postemergence; parameters: key: 0 is no effect; 10 is complete control; conditions: Postemergence
Method in brief: as §2

rape (Brassica napus) = assay: Test B pre-/postemergence; parameters: key: 0 is no effect; 10 is complete control
Method in brief: as §2

[6] = tested on: momingglory (Ipomoea hederacea); assay: Test B pre-/postemergence; parameters: key: 0 is no effect; 10 is complete control
Method in brief: as §2

[7] = tested on: sugar beet (Beta vulgaris); assay: Test B pre-/postemergence; parameters: key: 0 is no effect; 10 is complete control
Method in brief: as §2

[8] = tested on: giant foxtail (Setaria faberii); assay: Test B pre-/postemergence; parameters: key: 0 is no effect; 10 is complete control
Method in brief: as §2

[9] = tested on: purple nutsedge (Cyperus rotundus); assay: Test B pre-/postemergence; parameters: key: 0 is no effect; 10 is complete control
Method in brief: as §2

[10] = tested on: pigweed (Amaranthus retroflexus); assay: Test B pre-/postemergence; parameters: key: 0 is no effect; 10 is complete control
Method in brief: as §2

[11] = tested on: cocklebur (Xanthium strumarium); assay: Test B pre-/postemergence; parameters: key: 0 is no effect; 10 is complete control; conditions: for Cocklebur plant response rating: Preemergence
Method in brief: as §2

wild oat (Avena fatua) = assay: Test B pre-/postemergence; parameters: key: 0 is no effect; 10 is complete control
Method in brief: as §2

[12] = tested on: broadleaf signalgrass (Brachiaria decumbens); assay: Test B pre-/postemergence; parameters: key: 0 is no effect; 10 is complete control; conditions: for B. signalgrass plant response rating: Preemergence
Method in brief: as §2

[13] = tested on: velvetleaf (Abutilon theophrasti); assay: Test B pre-/postemergence; parameters: key: 0 is no effect; 10 is complete control
Method in brief: as §2

[14] = tested on: blackgrass (Alopecurus myosuroides); assay: Test B pre-/postemergence; parameters: key: 0 is no effect; 10 is complete control; conditions: for Blackgrass plant response rating: Preemergence
Method in brief: as §2

corn (Zea mays) = assay: Test B pre-/postemergence; parameters: key: 0 is no effect; 10 is complete control; conditions: for Corn plant response rating: Preemergence
Method in brief: as §2

soybean (Glycine max) = assay: Test B pre-/postemergence; parameters: key: 0 is no effect; 10 is complete control
Method in brief: as §2

[15] = tested on: crabgrass (Digitaria sanguinalis); assay: Test B pre-/postemergence; parameters: key: 0 is no effect; 10 is complete control; conditions: for Crabgrass plant response rating: Preemergence
Method in brief: as §2

[16] = Rate 62 g/ha, Postemergence (flood test)
[17] = Rate 125 g/ha, Postemergence, flood test
[18] = Rate 250 g/ha, Postemergence (flood test species)
[19] = Rate 125 g/ha, Postemergence section (flood test species)
[20] = Rate 250 g/ha, Postemergence (so in the source)

Cc1cnc(-c2ccc(F)c(Cl)c2)nc1Cc1cccc(C#N)c1 [Compound 40]
Plant response rating, Ducksalad [1, 16]: 1 | Plant response rating, Ducksalad [1, 17]: 5 | Plant response rating, Ducksalad [1, 18]: 7 | Plant response rating, Rice (rice (Oryza sativa); [16]): 1 | Rice plant response rating (rice (Oryza sativa); [19]): 1 | Plant response rating, Rice (rice (Oryza sativa); [18]): 2 | Plant response rating, Barnyardgrass [2, 16]: 2 | Plant response rating, Barnyardgrass [2, 17]: 2 | Plant response rating, Barnyardgrass [2, 18]: 2 | Plant response rating, S. Flatsedge [3, 16]: 2 | S. Flatsedge plant response rating [3, 19]: 4 | Plant response rating, S. Flatsedge [3, 18]: 5 | Wheat plant response rating ([4]; Rate 62 g/ha, Postemergence): 1 | Wheat plant response rating ([4]; Rate 62 g/ha, Preemergence): 0 | Wheat plant response rating ([4]; Rate 125 g/ha, Postemergence): 1 | Plant response rating, Wheat ([4]; Rate 125 g/ha, Preemergence): 0 | Plant response rating, Wheat ([4]; Rate 250 g/ha, Postemergence): 2 | Plant response rating, Wheat [4, 20]: 0 | Plant response rating, Bedstraw ([5]; Rate 62 g/ha): 4 | Plant response rating, Bedstraw ([5]; Rate 125 g/ha): 4 | Plant response rating, Bedstraw ([5]; Rate 250 g/ha): 6 | Plant response rating, Rape (rape (Brassica napus); Rate 62 g/ha, Postemergence): 6 | Rape plant response rating (rape (Brassica napus); Rate 62 g/ha, Preemergence): 0 | Rape plant response rating (rape (Brassica napus); Rate 125 g/ha, Postemergence): 6 | Rape plant response rating (rape (Brassica napus); Rate 125 g/ha, Preemergence): 1 | Plant response rating, Rape (rape (Brassica napus); Rate 250 g/ha, Postemergence): 8 | Plant response rating, Rape (rape (Brassica napus); [20]): 2 | Plant response rating, Morningglory ([6]; Rate 62 g/ha, Postemergence): 2 | Morningglory plant response rating ([6]; Rate 62 g/ha, Preemergence): 0 | Morningglory plant response rating ([6]; Rate 125 g/ha, Postemergence): 2 | Morningglory plant response rating ([6]; Rate 125 g/ha, Preemergence): 1 | Plant response rating, Morningglory ([6]; Rate 250 g/ha, Postemergence): 5 | Plant response rating, Morningglory [6, 20]: 2 | Plant response rating, Sugarbeets ([7]; Rate 62 g/ha, Postemergence): 10 | Sugarbeets plant response rating ([7]; Rate 62 g/ha, Preemergence): 2 | Sugarbeets plant response rating ([7]; Rate 125 g/ha, Postemergence): 10 | Plant response rating, Sugarbeets ([7]; Rate 125 g/ha, Preemergence): 6 | Plant response rating, Sugarbeets ([7]; Rate 250 g/ha, Postemergence): 10 | Plant response rating, Sugarbeets [7, 20]: 6 | Plant response rating, Giant foxtail ([8]; Rate 62 g/ha, Postemergence): 0 | Giant foxtail plant response rating ([8]; Rate 62 g/ha, Preemergence): 0 | Giant foxtail plant response rating ([8]; Rate 125 g/ha, Postemergence): 0 | Giant foxtail plant response rating ([8]; Rate 125 g/ha, Preemergence): 1 | Plant response rating, Giant foxtail ([8]; Rate 250 g/ha, Postemergence): 2 | Plant response rating, Giant foxtail [8, 20]: 3 | Nutsedge plant response rating ([9]; Rate 62 g/ha, Preemergence): 0 | Plant response rating, Nutsedge [9, 20]: 0 | Plant response rating, Redroot pigweed ([10]; Rate 62 g/ha, Postemergence): 2 | Redroot pigweed plant response rating ([10]; Rate 62 g/ha, Preemergence): 0 | Redroot pigweed plant response rating ([10]; Rate 125 g/ha, Postemergence): 3 | Redroot pigweed plant response rating ([10]; Rate 125 g/ha, Preemergence): 1 | Plant response rating, Redroot pigweed ([10]; Rate 250 g/ha, Postemergence): 6 | Plant response rating, Redroot pigweed [10, 20]: 2 | Plant response rating, Cocklebur ([11]; Rate 62 g/ha, Postemergence): 5 | Cocklebur plant response rating ([11]; Rate 62 g/ha): 0 | Plant response rating, Cocklebur ([11]; Rate 125 g/ha, Postemergence): 2 | Cocklebur plant response rating ([11]; Rate 125 g/ha): 0 | Plant response rating, Cocklebur ([11]; Rate 250 g/ha, Postemergence): 5 | Plant response rating, Cocklebur [11, 20]: 0 | Wild oats plant response rating (wild oat (Avena fatua); Rate 62 g/ha, Postemergence): 0 | Wild oats plant response rating (wild oat (Avena fatua); Rate 62 g/ha, Preemergence): 0 | Wild oats plant response rating (wild oat (Avena fatua); Rate 125 g/ha, Postemergence): 0 | Plant response rating, Wild oats (wild oat (Avena fatua); Rate 125 g/ha, Preemergence): 0 | Plant response rating, Wild oats (wild oat (Avena fatua); Rate 250 g/ha, Postemergence): 1 | Plant response rating, Wild oats (wild oat (Avena fatua); [20]): 1 | Plant response rating, B. signalgrass ([12]; Rate 62 g/ha, Postemergence): 1 | B. signalgrass plant response rating ([12]; Rate 62 g/ha): 0 | Plant response rating, B. signalgrass ([12]; Rate 125 g/ha, Postemergence): 1 | B. signalgrass plant response rating ([12]; Rate 125 g/ha): 0 | Plant response rating, B. signalgrass ([12]; Rate 250 g/ha, Postemergence): 1 | Plant response rating, B. signalgrass ([12]; Rate 250 g/ha, Postemergence as printed in head r139 (second section for compounds 26-50)): 1 | Plant response rating, Velvetleaf ([13]; Rate 62 g/ha, Postemergence): 1 | Velvetleaf plant response rating ([13]; Rate 62 g/ha, Preemergence): 0 | Velvetleaf plant response rating ([13]; Rate 125 g/ha, Postemergence): 2 | Plant response rating, Velvetleaf ([13]; Rate 125 g/ha, Preemergence): 0 | Plant response rating, Velvetleaf ([13]; Rate 250 g/ha, Postemergence): 2 | Plant response rating, Velvetleaf [13, 20]: 1 | Plant response rating, Blackgrass ([14]; Rate 62 g/ha, Postemergence): 2 | Blackgrass plant response rating ([14]; Rate 62 g/ha): 0 | Plant response rating, Blackgrass ([14]; Rate 125 g/ha, Postemergence): 2 | Blackgrass plant response rating ([14]; Rate 125 g/ha): 1 | Plant response rating, Blackgrass ([14]; Rate 250 g/ha, Postemergence): 2 | Plant response rating, Blackgrass [14, 20]: 2 | Plant response rating, Corn (corn (Zea mays); Rate 62 g/ha, Postemergence): 1 | Corn plant response rating (corn (Zea mays); Rate 62 g/ha): 0 | Plant response rating, Corn (corn (Zea mays); Rate 125 g/ha, Postemergence): 1 | Corn plant response rating (corn (Zea mays); Rate 125 g/ha): 0 | Plant response rating, Corn (corn (Zea mays); Rate 250 g/ha, Postemergence): 1 | Plant response rating, Corn (corn (Zea mays); [20]): 0 | Plant response rating, Soybean (soybean (Glycine max); Rate 62 g/ha, Postemergence): 2 | Soybean plant response rating (soybean (Glycine max); Rate 62 g/ha, Preemergence): 0 | Soybean plant response rating (soybean (Glycine max); Rate 125 g/ha, Postemergence): 2 | Plant response rating, Soybean (soybean (Glycine max); Rate 125 g/ha, Preemergence): 0 | Plant response rating, Soybean (soybean (Glycine max); Rate 250 g/ha, Postemergence): 2 | Plant response rating, Soybean (soybean (Glycine max); [20]): 0 | Plant response rating, Crabgrass ([15]; Rate 62 g/ha, Postemergence): 1 | Crabgrass plant response rating ([15]; Rate 62 g/ha): 0 | Plant response rating, Crabgrass ([15]; Rate 125 g/ha, Postemergence): 1 | Crabgrass plant response rating ([15]; Rate 125 g/ha): 0 | Plant response rating, Crabgrass ([15]; Rate 250 g/ha, Postemergence): 3 | Plant response rating, Crabgrass [15, 20]: 0
